Target: T1, human CCR10 (Homo sapiens, UniProt P46092)
T1 construct: expressed in transfected cells; host or cells: KJMGER8 cells (Namalwa cell-derived line), beta-estradiol-induced; hCCR10G16 cells
T1 sequence (P46092 1-362): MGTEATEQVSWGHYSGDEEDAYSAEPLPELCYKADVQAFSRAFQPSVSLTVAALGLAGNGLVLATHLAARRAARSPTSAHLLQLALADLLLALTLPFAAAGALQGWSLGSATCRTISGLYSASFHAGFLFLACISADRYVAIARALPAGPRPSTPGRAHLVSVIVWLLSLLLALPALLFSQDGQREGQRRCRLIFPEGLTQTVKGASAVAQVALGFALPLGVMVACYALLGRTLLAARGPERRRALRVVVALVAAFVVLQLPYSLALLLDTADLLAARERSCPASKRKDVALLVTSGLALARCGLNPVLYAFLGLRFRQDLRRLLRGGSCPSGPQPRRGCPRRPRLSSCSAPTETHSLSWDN
Test: CCR10 antagonistic effect: calcium assay of human CCR10 (CTACK-induced increase of intracellular calcium in hCCR10G16 cells)
Type: cell-based
Conditions: at a concentration of not more than 1000 nmol/L; human CCR10-expressing hCCR10G16 cells, 300 nmol/L CTACK added; read-out: inhibition of increase in the calcium ion concentration
Description: [Experimental Example 1] CCR10 Antagonistic Effect
(1) Preparation of Human CCR10-Inducible Expression Plasmid
A CCR10-inducible expression plasmid was prepared according to a known method [Analytical Biochemistry, 2006, vol. 400, page 163]. A DNA encoding human CCR10 was obtained by PCR. Using human chromosome DNA (100 ng; manufactured by Clontech) as a template, synthetic DNA having the sequences depicted in SEQ ID NOs: 1 and 2 as a human CCR10 cDNA specific primer, and Pyrobest DNA Polymerase (manufactured by TAKARA SHUZO CO. LTD.) as an enzyme, a DNA encoding human CCR10 was obtained by PCR. As a buffer for PCR, the buffer attached to the enzyme to be used, which was diluted 10-fold with deionized water, was used. Using Thermal Cycler DNA Engine (manufactured by MJ Research), PCR was performed by 35 cycles of reactions composed of an incubation at 94° C. for 30 sec, at an anneal temperature of 58° C. for 30 sec, and at 72° C. for 1 min after treating at 90° C. for 2 min.
The amplified PCR fragment was cleaved with HindIII and NotI, then a human CCR10 DNA fragment was recovered by the agarose gel electrophoresis method. The fragment was incorporated between the corresponding restriction enzyme sites (HindIII-NotI) of an inducible expression vector to construct a human CCR10-inducible expression plasmid.
Using a primer specific to the sequence of plasmid (synthetic DNA having the sequences shown in SEQ ID NOs: 3 and 4), the sequence of human CCR10 DNA region was determined. For the determination of the base sequence, DNA Sequencer 377 (manufactured by Perkin Elmer. Co.) and a reaction kit (ABI Prism (registered trade mark) BigDye (registered trade mark) Terminator Cycle Sequencing Ready Reaction kit: manufactured by Applied Biosystems) were used. The sequence of human CCR10 DNA was identical with the sequence (NM 016602) registered in GenBank.
(2) Preparation of Human CCR10 Expressing Cell for Calcium Assay
Cells for detecting signals from human CCR10 in calcium assay were prepared. According to a known method [Analytical.Biochemistry (Analy Biochem), 2006, vol. 400, page 163], human CCR10-inducible expressing cells whose host cell is KJMGER8 cell (Namalwa cell-derived cell line) were prepared. Human CCR10-inducible expression plasmid produced above and Gα16 expression plasmid were co-transfected into the KJMGER8 cells by the electroporation method [Cytotechnology, 1990, vol. 3, page 133], whereby the signals from human CCR10 could be detected by calcium assay (hereinafter to be referred to as hCCR10G16 cell). A Ga16 expression plasmid was produced by incorporating human Ga16 DNA into expression vector pAMoh (WO 03/087366). Expression of human CCR10 was induced by cultivating hCCR10G16 cells in the presence of 10 nmol/L β-estradiol (manufactured by Sigma Ltd.) for 24 hr.
(3) Calcium Assay of Human CCR10
Cells expressing human CCR10 induced by the above-mentioned method were suspended in RPMI1640 medium (manufactured by Invitrogen), and adjusted to a cell density of 2×10^6 cells/mL. The cells were blended with an equivalent volume of a loading buffer prepared according to the attached protocol of Fluo-3 calcium assay kit (manufactured by Molecular Devices Corporation), and incubated at 37° C. for several dozen minutes. This mixture was dispensed to a 384 well clear-bottom plate (manufactured by Corning Incorporated) at 40 μL/well. To this plate was added a solution of the test compound in dimethyl sulfoxide (DMSO), which was diluted 37-fold with RPMI1640 medium, at 5 μL/well, and the mixture was incubated at 37° C. for 30 min. 300 nmol/L human recombinant CTACK (manufactured by R&D Systems, Inc.) diluted with RPMI1640 medium containing 1 w/v % bovine serum albumin (manufactured by Sigma Ltd.) was added at 5 μL/well and, variation of intracellular calcium ion concentration for about 5 min after the addition was measured by a screening apparatus (FDSS; manufactured by Hamamatsu Photonics K.K.). […]

| SMILES | inhibition at up to 1 µM [%] |
| --- | --- |
| CCNC(=O)N(C)S(=O)(=O)c1cc(Nc2ccc(F)cc2C)c(C(=O)N2CCC(c3ccc(F)cc3)CC2)cn1 [Compound 23, N-(ethylcarbamoyl)-4-(4-fluoro-2-methylphenylamino)-5-[4-(4-fluorophenyl)piperidine-1-carbonyl]-N-methylpyridine-2-sulfonamide] | ≥ 50 |
| CC(=O)N1CCN(S(=O)(=O)c2cc(Nc3ccc(F)cc3C)c(C(=O)N3CCC(c4ccc(F)cc4)CC3)cn2)CC1 [Compound 124, 1-{4-{4-(4-fluoro-2-methylphenylamino)-5-[4-(4-fluorophenyl)piperidine-1-carbonyl]pyridin-2-ylsulfonyl}piperazin-1-yl}ethanone] | ≥ 50 |
| Cc1cc(F)ccc1Nc1c(C(=O)N2CCC(C#N)(c3ccccc3)CC2)cnc(S(N)(=O)=O)c1Cl [Compound 195, 3-chloro-5-(4-cyano-4-phenylpiperidine-1-carbonyl)-4-(4-fluoro-2-methylphenylamino)pyridine-2-sulfonamide] | ≥ 50 |
| Cc1cc(Cl)ccc1Nc1cc(S(N)(=O)=O)ncc1C(=O)N1CCC(c2ccccc2)CC1 [Compound 49, 4-(4-chloro-2-methylphenylamino)-5-(4-phenylpiperidine-1-carbonyl)pyridine-2-sulfonamide] | ≥ 50 |
| NS(=O)(=O)c1cc(Nc2ccc3ncccc3c2)c(C(=O)N2CCC(c3ccc(F)cc3)CC2)cn1 [Compound 4, 5-[4-(4-fluorophenyl)piperidine-1-carbonyl]-4-(quinolin-6-ylamino)pyridine-2-sulfonamide] | ≥ 50 |
| COc1ccc(C)c(Nc2cc(S(N)(=O)=O)ncc2C(=O)N2CCC(c3ccc(F)cc3)CC2)c1 [Compound 93, 5-[4-(4-fluorophenyl)piperidine-1-carbonyl]-4-(5-methoxy-2-methylphenylamino)pyridine-2-sulfonamide] | ≥ 50 |
| Cc1c(S(N)(=O)=O)ncc(C(=O)N2CCC(c3ccc(F)cc3)CC2)c1Nc1cccc(Cl)c1 [Compound 197, 4-(3-chlorophenylamino)-5-[4-(4-fluorophenyl)piperidine-1-carbonyl]-3-methylpyridine-2-sulfonamide] | ≥ 50 |
| NS(=O)(=O)c1cc(NCc2ccccc2)c(C(=O)N2CCC(c3ccc(F)cc3)CC2)cn1 [Compound 15, 4-(benzylamino)-5-[4-(4-fluorophenyl)piperidine-1-carbonyl]pyridine-2-sulfonamide] | ≥ 50 |
| COc1ccc(Nc2cc(S(N)(=O)=O)ncc2C(=O)N2CCC(c3ccc(F)cc3)CC2)c(F)c1 [Compound 87, 4-(2-fluoro-4-methoxyphenylamino)-5-[4-(4-fluorophenyl)piperidine-1-carbonyl]pyridine-2-sulfonamide] | ≥ 50 |
| NS(=O)(=O)c1ncc(C(=O)N2CCC(c3ccc(F)cc3)CC2)c(NC(=O)c2ccccc2)c1Cl [Compound 211, N-{3-chloro-5-[4-(4-fluorophenyl)piperidine-1-carbonyl]-2-sulfamoylpyridin-4-yl}benzamide] | ≥ 50 |
| O=C(c1cnc(S(=O)(=O)Nc2ccon2)c(F)c1NCc1ccccc1)N1CCC(c2ccc(F)cc2)CC1 [Compound 225, 4-(benzylamino)-3-fluoro-5-[4-(4-fluorophenyl)piperidine-1-carbonyl]-N-(isoxazol-3-yl)pyridine-2-sulfonamide] | ≥ 50 |
| NS(=O)(=O)c1cc(Nc2c(F)cccc2F)c(C(=O)N2CCC(c3ccc(F)cc3)CC2)cn1 [Compound 73, 4-(2,6-difluorophenylamino)-5-[4-(4-fluorophenyl)piperidine-1-carbonyl]pyridine-2-sulfonamide] | ≥ 50 |
| Cc1ccccc1Nc1c(C(=O)N2CC(c3ccc(F)cc3)C2)cnc(S(=O)(=O)Nc2ccon2)c1C [Compound 292, 5-[3-(4-fluorophenyl)azetidine-1-carbonyl]-N-(isoxazol-3-yl)-3-methyl-4-(o-tolylamino)pyridine-2-sulfonamide] | ≥ 50 |
